Data as given in patent US10538555B2, “Macrocyclic inhibitors of the PD-1/PD-L1 and CD80(B7-1)/PD-L1 protein/protein interactions” (BRISTOL-MYERS SQUIBB COMPANY, priority 2014, dated 2020).
Where a SMILES comes first, the peptide text is derived from it. Bridges are numbered along the chain shown (N, C = ends). [ ]: non-standard residue; d: D form. ξ: configuration not given here. Trp(1-CH2COOH) = N[C@@H](Cc1cn(CC(=O)O)c2ccccc12)C(=O)O; Phe(3,4,5-F3) = N[C@@H](Cc1cc(F)c(F)c(F)c1)C(=O)O; Phe(3,4-F2) = N[C@@H](Cc1ccc(F)c(F)c1)C(=O)O; Phe(4-F) = N[C@@H](Cc1ccc(F)cc1)C(=O)O; d(cisHyp) = O=C(O)[C@H]1C[C@@H](O)CN1; Bta = N[C@@H](Cc1csc2ccccc12)C(=O)O; Hyp = O=C(O)[C@@H]1C[C@@H](O)CN1; NMeF = CN[C@@H](Cc1ccccc1)C(=O)O; dNMeF = CN[C@H](Cc1ccccc1)C(=O)O; dHyp = O=C(O)[C@H]1C[C@H](O)CN1; NMeNle = CCCC[C@H](NC)C(=O)O; hSer = N[C@@H](CCO)C(=O)O; NMeA = CN[C@@H](C)C(=O)O; Orn = NCCC[C@H](N)C(=O)O; dNMeA = CN[C@H](C)C(=O)O; Dab = NCC[C@H](N)C(=O)O; Dap = NC[C@H](N)C(=O)O; ξC = NC(CS)C(=O)O

Molecular target: T1, Human PD-L1/PD-1 (Homo sapiens, UniProt Q9NZQ7)
T1 construct: TVMV protease cleavage site (C); made in house; host or cells: HEK293T cells
Assay: HTRF Human PD-L1/PD-1 binding assay (PD-1-Ig/PD-L1-His)
Settings: PD-L1-His 10 nM, PD-1-Ig 20 nM; class symbol; read-out: HTRF Human PD-L1/PD-1 Binding Assay IC50 Range
Outline: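 HTRF read-out (665/620 nm ratio) after 30 min equilibration with Eu-cryptate anti-Ig mAb (1 nM) and APC anti-His mAb (20 nM). Peptides preincubated 15 min with PD-L1-His (10 nM), then PD-1-Ig (20 nM) added for 15 min.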

T1 sequence (Q9NZQ7 with tags, fused parts or gaps): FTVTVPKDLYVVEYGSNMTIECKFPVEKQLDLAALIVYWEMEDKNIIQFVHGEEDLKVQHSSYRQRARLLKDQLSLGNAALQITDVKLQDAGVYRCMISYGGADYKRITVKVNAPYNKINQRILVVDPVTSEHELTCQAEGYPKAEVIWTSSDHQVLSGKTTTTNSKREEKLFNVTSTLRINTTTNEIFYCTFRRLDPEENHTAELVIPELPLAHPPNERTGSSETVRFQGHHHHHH

Row | Structure (SMILES) | IC50
1 | CCCC[C@H]1C(=O)N(C)[C@@H](CCCC)C(=O)N[C@@H](CCCNC(=N)N)C(=O)NC(C(=O)NCC(N)=O)CSCC(=O)N[C@@H](Cc2ccc(O)cc2)C(=O)N(C)[C@@H](C)C(=O)N[C@@H](CC(N)=O)C(=O)N2CCC[C@H]2C(=O)N[C@@H](CO)C(=O)N[C@@H](CO)C(=O)N2C[C@H](O)C[C@H]2C(=O)N[C@@H](Cc2c[nH]c3ccccc23)C(=O)N[C@@H](CO)C(=O)N[C@@H](Cc2c[nH]c3ccccc23)C(=O)N1C (stereo partly drawn) [Example 10018] ({CH2CO}-Y[NMeA]NPSS[Hyp]WSW[NMeNle][NMeNle]R[ξC]G-NH2; thioether N-14) | 10 to 99.9 nM
2 | CCCC[C@H]1C(=O)N(C)[C@@H](CCCC)C(=O)N[C@@H](CCCN)C(=O)N[C@H](C(=O)NCC(N)=O)CSCC(=O)N[C@@H](Cc2ccc(OC)cc2)C(=O)N(C)[C@@H](C)C(=O)N[C@@H](CC(N)=O)C(=O)N2CCC[C@H]2C(=O)N[C@@H](Cc2cnc[nH]2)C(=O)N[C@@H](CCCCN)C(=O)N2C[C@H](O)C[C@H]2C(=O)N[C@@H](Cc2c[nH]c3ccccc23)C(=O)N[C@@H](CC(=O)O)C(=O)N[C@@H](Cc2c[nH]c3ccccc23)C(=O)N1C [Example 7128] ({CH2CO}-Y(Me)[NMeA]NPHK[Hyp]WDW[NMeNle][NMeNle][Orn]CG-NH2; thioether N-14) | 10 to 99.9 nM
3 | CCCC[C@H]1C(=O)N2C[C@@H](O)C[C@@H]2C(=O)N[C@@H](CC(=O)O)C(=O)N[C@@H](C(C)C)C(=O)N(C)[C@@H](Cc2ccccc2)C(=O)N[C@@H](Cc2ccc(OC)cc2)C(=O)N2C[C@@H](O)C[C@@H]2C(=O)N[C@@H](Cc2c[nH]c3ccccc23)C(=O)N[C@@H](Cc2ccc(O)cc2)C(=O)N[C@@H](CC(C)C)C(=O)N[C@H](C(=O)NCC(N)=O)CSCC(=O)N[C@@H](Cc2ccc(F)c(F)c2)C(=O)N(C)[C@@H](Cc2ccccc2)C(=O)N1C [Example 9225] ({CH2CO}-[Phe(3,4-F2)][NMeF][NMeNle][dHyp]DV[NMeF]Y(Me)[dHyp]WYLCG-NH2; thioether N-13) | 1 to 9.9 nM
4 | CCCC[C@H]1C(=O)N(C)[C@@H](CCCC)C(=O)N[C@@H](CCCN)C(=O)N[C@H](C(=O)NCC(N)=O)CSCC(=O)N[C@@H](Cc2ccc(OC)cc2)C(=O)N(C)[C@@H](C)C(=O)N[C@@H](CC(=O)O)C(=O)N2CCC[C@H]2C(=O)N[C@@H](Cc2cnc[nH]2)C(=O)N[C@@H](CCC(=O)O)C(=O)N2C[C@H](O)C[C@H]2C(=O)N[C@@H](Cc2c[nH]c3ccccc23)C(=O)N[C@@H](CCN)C(=O)N[C@@H](Cc2c[nH]c3ccccc23)C(=O)N1C [Example 7098] ({CH2CO}-Y(Me)[NMeA]DPHE[Hyp]W[Dab]W[NMeNle][NMeNle][Orn]CG-NH2; thioether N-14) | 1 to 9.9 nM
5 | CCCC[C@H]1C(=O)N(C)[C@@H](CCCC)C(=O)N[C@@H](CCC(=O)O)C(=O)N[C@H](C(=O)NCC(N)=O)CSCC(=O)N[C@@H](Cc2ccc(O)cc2)C(=O)N(C)[C@@H](C)C(=O)N[C@@H](CC(N)=O)C(=O)N2CCC[C@H]2C(=O)N[C@@H](Cc2cnc[nH]2)C(=O)N[C@@H](CCCN)C(=O)N2C[C@H](O)C[C@H]2C(=O)N[C@@H](Cc2c[nH]c3ccccc23)C(=O)N[C@@H](CCCCN)C(=O)N[C@@H](Cc2cn(CC(=O)O)c3ccccc23)C(=O)N1C [Example 6267] ({CH2CO}-Y[NMeA]NPH[Orn][Hyp]WK[Trp(1-CH2COOH)][NMeNle][NMeNle]ECG-NH2; thioether N-14) | 1 to 9.9 nM
6 | CCCC[C@H]1C(=O)N(C)[C@@H](CCCC)C(=O)N[C@@H](CCC(=O)O)C(=O)N[C@H](C(=O)NCC(N)=O)CSCC(=O)N[C@@H](Cc2ccc(OC)cc2)C(=O)N(C)[C@@H](C)C(=O)N[C@@H](CCN)C(=O)N2CCC[C@H]2C(=O)N[C@@H](CN)C(=O)N[C@@H](CCC(=O)O)C(=O)N2C[C@H](O)C[C@H]2C(=O)N[C@@H](Cc2c[nH]c3ccccc23)C(=O)N[C@@H](CCN)C(=O)N[C@@H](Cc2cn(CC(=O)O)c3ccccc23)C(=O)N1C [Example 7140] ({CH2CO}-Y(Me)[NMeA][Dab]P[Dap]E[Hyp]W[Dab][Trp(1-CH2COOH)][NMeNle][NMeNle]ECG-NH2; thioether N-14) | 1 to 9.9 nM
7 | CCCC[C@H]1C(=O)N2C[C@H](O)C[C@@H]2C(=O)N[C@@H](CC(=O)O)C(=O)N[C@@H](C(C)C)C(=O)N(C)[C@H](Cc2ccccc2)C(=O)N[C@@H](CCCN)C(=O)N2C[C@H](O)C[C@@H]2C(=O)N[C@@H](Cc2c[nH]c3ccccc23)C(=O)N[C@@H](Cc2ccc(O)cc2)C(=O)N[C@@H](CCCN)C(=O)N[C@H](C(=O)NCC(N)=O)CSCC(=O)N[C@@H](Cc2ccc(F)c(F)c2)C(=O)N(C)[C@@H](Cc2ccccc2)C(=O)N1C [Example 9309] ({CH2CO}-[Phe(3,4-F2)][NMeF][NMeNle][d(cisHyp)]DV[dNMeF][Orn][d(cisHyp)]WY[Orn]CG-NH2; thioether N-13) | 1 to 9.9 nM
8 | CCCC[C@H]1C(=O)N(C)[C@@H](CCCC)C(=O)N[C@@H](CCCNC(=N)N)C(=O)NC(C(=O)NCC(N)=O)CSCC(=O)N[C@@H](Cc2ccc(O)cc2)C(=O)N(C)[C@@H](C)C(=O)N[C@@H](CC(N)=O)C(=O)N2CCC[C@H]2C(=O)N[C@@H](CCO)C(=O)N[C@@H](CC(C)C)C(=O)N2C[C@H](O)C[C@H]2C(=O)N[C@@H](Cc2c[nH]c3ccccc23)C(=O)N[C@@H](CO)C(=O)N[C@@H](Cc2c[nH]c3ccccc23)C(=O)N1C (stereo partly drawn) [Example 9127] ({CH2CO}-Y[NMeA]NP[hSer]L[Hyp]WSW[NMeNle][NMeNle]R[ξC]G-NH2; thioether N-14) | 1 to 9.9 nM
9 | CCCC[C@H]1C(=O)N(C)[C@@H](C)C(=O)N[C@@H](CCCNC(=N)N)C(=O)NC(C(=O)N[C@@H](CO)C(N)=O)CSCC(=O)N[C@@H](Cc2ccc(O)cc2)C(=O)N(C)[C@@H](C)C(=O)N[C@@H](CC(N)=O)C(=O)N2CCC[C@H]2C(=O)N[C@@H](CO)C(=O)N[C@H](CC(C)C)C(=O)N2CCC[C@H]2C(=O)N[C@@H](Cc2c[nH]c3ccccc23)C(=O)N[C@@H](CO)C(=O)N[C@@H](Cc2csc3ccccc23)C(=O)N1C (stereo partly drawn) [Example 9122] ({CH2CO}-Y[NMeA]NPS[dL]PWS[Bta][NMeNle][NMeA]R[ξC]S-NH2; thioether N-14) | 10 to 99.9 nM
10 | CCCC[C@H]1C(=O)N(C)[C@@H](CCCC)C(=O)N[C@@H](CCC(=O)O)C(=O)N[C@H](C(=O)NCC(N)=O)CSCC(=O)N[C@@H](Cc2ccc(O)cc2)C(=O)N(C)[C@@H](C)C(=O)N[C@@H](CC(N)=O)C(=O)N2CCC[C@H]2C(=O)N[C@@H](Cc2cnc[nH]2)C(=O)N[C@@H](CCC(=O)O)C(=O)N2C[C@H](O)C[C@H]2C(=O)N[C@@H](Cc2c[nH]c3ccccc23)C(=O)N[C@@H](CCN)C(=O)N[C@@H](Cc2cn(CC(=O)O)c3ccccc23)C(=O)N1C [Example 6134] ({CH2CO}-Y[NMeA]NPHE[Hyp]W[Dab][Trp(1-CH2COOH)][NMeNle][NMeNle]ECG-NH2; thioether N-14) | 1 to 9.9 nM
11 | CCCC[C@H]1C(=O)N(C)[C@@H](CCCC)C(=O)N[C@@H](C)C(=O)N[C@H](C(=O)NCC(N)=O)CSCC(=O)N[C@@H](Cc2ccc(O)cc2)C(=O)N(C)[C@@H](C)C(=O)N[C@@H](CC(N)=O)C(=O)N2CCC[C@H]2C(=O)N[C@@H](Cc2cnc[nH]2)C(=O)N[C@@H](CCN)C(=O)N2C[C@H](O)C[C@H]2C(=O)N[C@@H](Cc2c[nH]c3ccccc23)C(=O)N[C@@H](CO)C(=O)N[C@@H](Cc2c[nH]c3ccccc23)C(=O)N1C [Example 1245] | 10 to 99.9 nM
12 | CCCC[C@H]1C(=O)N[C@@H](CCC(N)=O)C(=O)N2CCC[C@@H]2C(=O)N[C@@H](Cc2c[nH]c3ccccc23)C(=O)N[C@@H](Cc2ccc(O)cc2)C(=O)N[C@@H](CC(C)C)C(=O)N[C@H](C(=O)NCC(N)=O)CSCC(=O)N[C@@H](Cc2ccc(F)cc2)C(=O)N(C)[C@@H](Cc2ccccc2)C(=O)N(C)[C@@H](CCCC)C(=O)N2CCC[C@@H]2C(=O)N[C@@H](CC(=O)O)C(=O)N[C@@H](C(C)C)C(=O)N1C [Example 9215] ({CH2CO}-[Phe(4-F)][NMeF][NMeNle][dP]DV[NMeNle]Q[dP]WYLCG-NH2; thioether N-13) | 10 to 99.9 nM
13 | CCCC[C@H]1C(=O)N(C)[C@@H](CCCC)C(=O)N[C@@H](CCC(=O)O)C(=O)N[C@H](C(=O)NCC(N)=O)CSCC(=O)N[C@@H](Cc2ccc(O)cc2)C(=O)N(C)[C@@H](C)C(=O)N[C@@H](CC(N)=O)C(=O)N2CCC[C@H]2C(=O)N[C@@H](CO)C(=O)N[C@@H](CCC(N)=O)C(=O)N2C[C@H](O)C[C@H]2C(=O)N[C@@H](Cc2c[nH]c3ccccc23)C(=O)N[C@@H](CCN)C(=O)N[C@@H](Cc2c[nH]c3ccccc23)C(=O)N1C [Example 5251] ({CH2CO}-Y[NMeA]NPSQ[Hyp]W[Dab]W[NMeNle][NMeNle]ECG-NH2; thioether N-14) | 1 to 9.9 nM
14 | CC(C)C[C@@H]1NC(=O)[C@H](Cc2ccc(O)cc2)NC(=O)[C@H](Cc2c[nH]c3ccccc23)NC(=O)[C@@H](C)N(C)C(=O)[C@H](Cc2ccc(O)cc2)NC(=O)[C@H](Cc2ccccc2)N(C)C(=O)[C@H](C(C)C)NC(=O)[C@H](CC(N)=O)NC(=O)[C@@H](C)N(C)C(=O)[C@H](C)N(C)C(=O)[C@H](Cc2ccccc2)N(C)C(=O)[C@H](Cc2cc(F)c(F)c(F)c2)NC(=O)CSC[C@@H](C(=O)NCC(N)=O)NC1=O [Example 9190] ({CH2CO}-[Phe(3,4,5-F3)][NMeF][NMeA][dNMeA]NV[NMeF]Y[dNMeA]WYLCG-NH2; thioether N-13) | 10 to 99.9 nM
15 | CCCC[C@H]1C(=O)N(C)[C@@H](CCCC)C(=O)N[C@@H](CN)C(=O)N[C@H](C(=O)NCC(N)=O)CSCC(=O)N[C@@H](Cc2ccc(O)cc2)C(=O)N(C)[C@@H](C)C(=O)N[C@@H](CC(N)=O)C(=O)N2CCC[C@H]2C(=O)N[C@@H](CN)C(=O)N[C@@H](CCC(=O)O)C(=O)N2C[C@H](O)C[C@H]2C(=O)N[C@@H](Cc2c[nH]c3ccccc23)C(=O)N[C@@H](CO)C(=O)N[C@@H](Cc2cn(CC(=O)O)c3ccccc23)C(=O)N1C [Example 5231] ({CH2CO}-Y[NMeA]NP[Dap]E[Hyp]WS[Trp(1-CH2COOH)][NMeNle][NMeNle][Dap]CG-NH2; thioether N-14) | 1 to 9.9 nM
